According to patent US20070066546A1, “Compositions for the reversible thioesterification of signaling proteins and methods of using same” (priority 2005, published 2007):

Experiments:
[1] = test system: mouse embryonic fibroblast; conditions: cited from earlier work
[2] = test system: E. coli strain TA4112 (OxyR-null); assay: Hydroperoxidase I (HPI) assay in crude extracts of treated OxyR-null bacteria; type: cell-based; conditions: OxyR-null cells, 100 μM, 60 min
Procedure: (§1) Hydroperoxidase I (HPI) Assay. The peroxidase activity of HPI was measured as described (Hausladen, A. et al. (1996) Cell 86, 719-729), in 50 mM potassium phosphate buffer (pH 7.5) containing 0.1 mM EDTA, 10 mM H2O2, and 0.2 mg/ml o-dianisidine, by measuring the increase in absorbance at 460 nm (Clairborne, A. & Fridovich, I. (1979) Biochemistry 18, 2324-2329). An extinction coefficient of 11.3 mM^−1 cm^−1 was used to calculate the specific activity of HPI ((1993) in Worthington Enzyme Manual: Peroxidase, ed. Worthington, V. (Worthington Biochemical Corporation, Freehold, N.J.)).
(§2) HPI, the enzyme encoded by the katG gene, protects bacterial cells against hydrogen peroxide-induced stress. E. coli strains RK4936 (wild-type) and TA4112 (OxyR-null) were grown aerobically to an A600 of 0.5 and then treated with 100 μM F094 or avicin D or G for 60 min. Cells were harvested by centrifugation, and the peroxidase activity in crude extracts was determined (see Materials and Methods). Wild-type (RK4936) and OxyR-null (TA4112) strains of bacteria were treated with avicins and assayed for HPI activity.

OxyR = OxyR (Escherichia coli, UniProt P0ACQ4); assay: In vitro transcription and primer extension with avicin-modified OxyR (katG and oxyS templates); type: biochemical, E. coli; conditions: for relative potency as activator of OxyR (in vitro transcriptional activity): comparison between F094, avicin D and avicin G; for OxyR activation as assessed by in vitro transcriptional activation of katG and oxyS: reduced OxyR, strictly anaerobic conditions, avicins:OxyR 1:10-100:1
Procedure: Reduction of OxyR. The reduced form of OxyR was generated by addition of a large excess of DTT (200 mM) for 1 h, followed by exhaustive dialysis (25 mM potassium phosphate/250 mM potassiumsulfate/1 mM magnesium sulfate/100 μM DTPA, pH 8) in an anaerobic glove box. Removal of DTT was monitored by the color change after addition of 5,5′-dithionitrobenzoic acid to an aliquot of the dialysis buffer.
Treatment of OxyR with Avicins. Reduced OxyR was treated with a 10-fold molar excess of F094 or purified avicin D or G to generate avicin-modified OxyR. The reaction was performed under anaerobic conditions for 1 h, followed by dialysis.
In Vitro Transcription and Primer Extension. In vitro transcription with the various modified forms of OxyR was performed as described (Kim, S. O., et al. (2002) Cell 109, 383-396). Plasmid pBT22 was used as the katG template and pUCOXYS, a plasmid containing the oxyS-coding region cloned into pUC19, was used as the oxyS template. Where indicated, avicin-modified forms of OxyR were reduced with 200 mM DTT. Primer extension assays were performed by using AMV reverse transcriptase (Promega), according to instructions supplied by the manufacturer.
Avicin modified OxyR was incubated with plasmids containing the katG or oxyS genes followed by primer extension (see Materials and Methods). After primer extension, samples were untreated or treated with DTT before gel analysis. Band intensities were quantified (phosphoimager), and data are plotted at top as percent maximal activation (n=2-3). At bottom, corresponding raw data from an individual experiment are depicted.

[3] = test system: E. coli strain RK4936 (wild-type); assay: Hydroperoxidase I (HPI) assay in crude extracts of treated wild-type bacteria; type: cell-based; conditions: wild-type cells, 100 μM, 60 min
Procedure: as §1, §2

Sequence of OxyR (P0ACQ4 whole entry): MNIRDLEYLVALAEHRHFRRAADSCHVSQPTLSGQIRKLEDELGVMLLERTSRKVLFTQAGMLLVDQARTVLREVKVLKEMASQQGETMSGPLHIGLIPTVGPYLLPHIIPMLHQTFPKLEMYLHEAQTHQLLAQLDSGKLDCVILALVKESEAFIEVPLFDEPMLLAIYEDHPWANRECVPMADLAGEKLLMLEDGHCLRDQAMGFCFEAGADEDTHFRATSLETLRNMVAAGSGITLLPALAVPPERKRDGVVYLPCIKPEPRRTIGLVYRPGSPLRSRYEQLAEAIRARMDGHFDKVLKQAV

Compound | decrease in cyclin D1 protein levels ([1]; NAC treatment) | increase in p27 protein levels ([1]; NAC treatment) | increase in intracellular low-molecular-weight thiols ([1]; treatment for 12 h) | HPI activity [2] | relative potency as activator of OxyR (in vitro transcriptional activity) (OxyR) | OxyR activation as assessed by in vitro transcriptional activation of katG and oxyS (OxyR) | HPI activity [3]
CC(=O)N[C@@H](CS)C(=O)O [NAC, N-acetyl-L-cysteine] | 70% | 3-4 fold | 6 fold |  |  |  | 
C=C[C@](C)(O)CC/C=C(\CO)C(=O)O[C@H]1[C@H](O)[C@@H](O)[C@H](O[C@@](C)(C=C)CC/C=C(\CO)C(=O)O[C@H]2C[C@]3(C(=O)O[C@@H]4O[C@H](CO)[C@@H](O)[C@H](O)[C@H]4O[C@@H]4O[C@@H](C)[C@H](O[C@@H]5O[C@@H](CO)[C@H](O)[C@H]5O)[C@@H](O[C@@H]5O[C@H](CO)[C@@H](O)[C@H](O)[C@H]5O)[C@H]4O)[C@H](O)C[C@]4(C)C(=CC[C@@H]5[C@@]6(C)CC[C@H](O[C@@H]7O[C@H](CO[C@@H]8O[C@H](C)[C@H](O)[C@H](O)[C@H]8O[C@@H]8OC[C@@H](O)[C@H](O)[C@H]8O)[C@@H](O)[C@H](O)[C@H]7NC(C)=O)C(C)(C)[C@@H]6CC[C@]54C)[C@@H]3CC2(C)C)O[C@@H]1C [avicin D] |  |  |  | no increase in activity | more potent activators than avicin G | resulted in OxyR activation | doubled HPI activity
C=C[C@](C)(O)CC/C=C(\C)C(=O)O[C@H]1[C@H](O)[C@@H](O)[C@H](O[C@@](C)(C=C)CC/C=C(\CO)C(=O)O[C@H]2C[C@]3(C(=O)O[C@@H]4O[C@H](CO)[C@@H](O)[C@H](O)[C@H]4O[C@@H]4O[C@@H](C)[C@H](O[C@@H]5O[C@@H](CO)[C@H](O)[C@H]5O)[C@@H](O[C@@H]5O[C@H](CO)[C@@H](O)[C@H](O)[C@H]5O)[C@H]4O)[C@H](O)C[C@]4(C)C(=CC[C@@H]5[C@@]6(C)CC[C@H](O[C@@H]7O[C@H](CO[C@@H]8O[C@H](C)[C@H](O)[C@H](O)[C@H]8O[C@@H]8OC[C@@H](O)[C@H](O)[C@H]8O)[C@@H](O)[C@H](O)[C@H]7NC(C)=O)C(C)(C)[C@@H]6CC[C@]54C)[C@@H]3CC2(C)C)O[C@@H]1C [avicin G] |  |  |  | no increase in activity | lower | resulted in OxyR activation | doubled HPI activity
